Results published in ChEMBL document CHEMBL1129258, “Synthesis and structure-activity relationships of 2-pyridones: a novel series of potent DNA gyrase inhibitors as antibacterial agents” (J Med Chem, 1996).
≈ marks a conversion by molar mass, not a printed value.

Experiments:
[1] = test system: Streptococcus pyogenes; assay: In vitro antibacterial activity against gram-positive organism Streptococcus pyogenes EES61; format: functional; settings: Streptococcus pyogenes; read-out: MIC
[2] = biological target: T1, DNA gyrase (Staphylococcus aureus) (UniProt P0A0K8+P20831); assay: In vitro antibacterial activity against gram-positive organism Staphylococcus aureus ATCC 6538p; format: functional
[3] = biological target: T2, DNA gyrase (Escherichia coli) (UniProt P0AES6+P0AES4); assay: In vitro antibacterial against gram-negative organism Escherichia coli JUHL; format: functional; settings: Escherichia coli K-12
[4] = biological target: T2, DNA gyrase (Escherichia coli); assay: In vitro antibacterial activity against gram-positive organism Streptococcus bovis A-5169; format: functional; settings: Streptococcus equinus
[5] = test system: Escherichia coli; assay: In vivo efficacy against Escherichia coli JUHL by orally administered.; format: functional; settings: po
[6] = biological target: T2, DNA gyrase (Escherichia coli); assay: In vitro antibacterial activity against gram-negative organism […] ATCC 13048; format: functional; settings: Enterobacter aerogenes
[7] = test system: Staphylococcus aureus; assay: In vivo efficacy against Staphylococcus aureus NCTC-10649M by subcutaneously administered.; format: functional
[8] = test system: Escherichia coli; assay: In vivo efficacy against Escherichia coli JUHL by subcutaneously administered.; format: functional; settings: sc
[9] = biological target: T1, DNA gyrase (Staphylococcus aureus); assay: In vitro antibacterial activity against gram-positive organism Staphylococcus aureus 1775; format: functional
[10] = test system: Staphylococcus aureus; assay: In vivo efficacy against Staphylococcus aureus NCTC-10649M by orally administered.; format: functional
[11] = test system: Streptococcus pneumoniae; assay: In vivo efficacy against Stap. administered.; format: functional
[12] = biological target: T2, DNA gyrase (Escherichia coli); assay: In vitro antibacterial activity against gram-negative organism Prov. stuartii CMX-640; format: functional; settings: Providencia stuartii
[13] = biological target: T1, DNA gyrase (Staphylococcus aureus); assay: In vitro antibacterial activity against gram-positive organism Staphylococcus aureus NCTC-10649M; format: functional
[14] = biological target: T2, DNA gyrase (Escherichia coli); assay: In vitro antibacterial activity against gram-negative organism Klebsiella pneumoniae ATCC 8045; format: functional
[15] = test system: Pseudomonas aeruginosa; assay: In vivo efficacy against Pseudomonas aeruginosa 5007 by subcutaneously administered.; format: functional; settings: sc
[16] = biological target: T2, DNA gyrase (Escherichia coli); settings: Escherichia coli K-12
Description: Concentration which causes 50% of the gyrase (Escherichia coli H560)-mediated maximal DNA cleavage.

[17] = In vitro antibacterial activity against gram-negative organism Pseudomonas aeruginosa DPHD-2862; format: functional; settings: Pseudomonas aeruginosa; read-out: MIC
[18] = biological target: T2, DNA gyrase (Escherichia coli); assay: In vitro antibacterial activity against gram-positive organism Enterococcus faecium ATCC 8043; format: functional
[19] = (§1) In vitro antibacterial activity against gram-negative organism Pseudomonas aeruginosa 5007; format: functional; settings: Pseudomonas aeruginosa; read-out: MIC
[20] = test system: Pseudomonas aeruginosa; assay: In vivo efficacy against Pseudomonas aeruginosa 5007 following p.o. administration.
[21] = in vivo; settings: rat, plasma, po, 5 mg/kg
[22] = test system: Streptococcus pneumoniae; assay: (§2) In vivo efficacy against Strep. administration; format: functional
[23] = Maximum plasma concentration in rats after an oral dose of 5 mg/kg; settings: rat
[24] = in vivo; settings: rat, po, 5 mg/kg
Description: Oral bioavailability in rat (dose 5 mg/kg)

[25] = biological target: T2, DNA gyrase (Escherichia coli); assay: In vivo efficacy against Escherichia coli JUHL by subcutaneous administration; format: functional, organism-based; settings: Escherichia coli K-12
[26] = biological target: T1, DNA gyrase (Staphylococcus aureus); assay: (§3) In vivo efficacy against Staphylococcus aureus NCTC-10649M after oral administration; format: functional, organism-based
[27] = test system: Streptococcus pneumoniae; assay: as §2; format: functional; remark: listed apart in the source
[28] = biological target: T2, DNA gyrase (Escherichia coli); assay: In vivo efficacy against Escherichia coli JUHL after oral administration; format: functional, organism-based; settings: Escherichia coli K-12
[29] = test system: Staphylococcus aureus; assay: (§4) In vivo efficacy against Staphylococcus aureus NCTC-10649M after subcutaneous administration; format: functional; settings: sc
[30] = In vivo efficacy against Pseudomonas aeruginosa 5007 after subcutaneous administration; format: functional; settings: Pseudomonas aeruginosa, sc; read-out: ED50
[31] = biological target: T1, DNA gyrase (Staphylococcus aureus); assay: as §4; format: functional, organism-based
[32] = test system: Enterococcus faecium; assay: In vitro antibacterial activity against gram-positive organism Enterococcus faecium ATCC 8043
[33] = test system: Staphylococcus aureus; assay: as §3; format: functional
[34] = test system: Pseudomonas aeruginosa; assay: as §1; format: functional
[35] = test system: Streptococcus pneumoniae; assay: as §2; format: functional; remark: listed apart in the source
[36] = test system: Streptococcus equinus; assay: In vitro antibacterial activity against gram-positive organism Strep. bovis A-5169; format: functional

| MIC [1] | MIC [2] | MIC [3] | MIC [4] | MIC [6] | MIC [9] | MIC [12] | MIC [13] | MIC [14] | MIC [17] | MIC [18] | MIC [19] | ED50 [20] | ED50 [25] | ED50 [26] | ED50 [28] | ED50 [31] | SMILES | CC50 [16] | ED50 [30] | further results |
| --- | --- | --- | --- | --- | --- | --- | --- | --- | --- | --- | --- | --- | --- | --- | --- | --- | --- | --- | --- | --- |
| 0.2 µg/mL (≈ 0.515 µM) | 0.05 µg/mL (≈ 0.129 µM) | 0.02 µg/mL (≈ 0.0515 µM) | 0.2 µg/mL (≈ 0.515 µM) | 0.1 µg/mL (≈ 0.257 µM) | 6.2 µg/mL (≈ 16 µM) | 1.56 µg/mL (≈ 4.02 µM) | 0.1 µg/mL (≈ 0.257 µM) | 0.02 µg/mL (≈ 0.0515 µM) | 6.2 µg/mL (≈ 16 µM) | 0.39 µg/mL (≈ 1 µM) | 0.39 µg/mL (≈ 1 µM) | – | – | – | – | – | Cc1c(N2CCC(N)C2)c(F)cn2c(=O)c(/C(O)=C/[N+](=O)[O-])cc(C3CC3)c12 (stereo not drawn) | 3 µg/mL (≈ 7.72 µM) | – | ED50 [5]: > 10 mg/kg; ED50 [7]: > 12 mg/kg; ED50 [8]: > 5 mg/kg; ED50 [10]: 25.2 mg/kg; ED50 [11]: > 8 mg/kg; ED50 [15]: 3.2 mg/kg |
| 0.05 µg/mL (≈ 0.144 µM) | 0.01 µg/mL (≈ 0.0289 µM) | 0.02 µg/mL (≈ 0.0577 µM) | 0.05 µg/mL (≈ 0.144 µM) | 0.02 µg/mL (≈ 0.0577 µM) | 0.2 µg/mL (≈ 0.577 µM) | 0.2 µg/mL (≈ 0.577 µM) | 0.005 µg/mL (≈ 0.0144 µM) | 0.02 µg/mL (≈ 0.0577 µM) | 6.2 µg/mL (≈ 17.9 µM) | 0.05 µg/mL (≈ 0.144 µM) | 0.2 µg/mL (≈ 0.577 µM) | > 50 mg/kg | > 1 mg/kg | 15.2 mg/kg | > 5 mg/kg | – | Cc1c(N2CCC(O)C2)c(F)cn2c(=O)c(C(=O)O)cc(C3CC3)c12 (stereo not drawn) | – | > 8 mg/kg | half-life [21]: 5.4 h; ED50 [22]: 7.4 mg/kg; Cmax [23]: 1420 ng/mL; bioavailability [24]: 50%; ED50 [27]: 41.5 mg/kg; ED50 [29]: 11.3 mg/kg |
| 0.39 µg/mL (≈ 0.965 µM) | 0.1 µg/mL (≈ 0.247 µM) | 0.02 µg/mL (≈ 0.0495 µM) | 1.56 µg/mL (≈ 3.86 µM) | 0.05 µg/mL (≈ 0.124 µM) | > 100 µg/mL | 1.56 µg/mL (≈ 3.86 µM) | 0.1 µg/mL (≈ 0.247 µM) | 0.02 µg/mL (≈ 0.0495 µM) | 100 µg/mL (≈ 247 µM) | – | 0.39 µg/mL (≈ 0.965 µM) | 42.1 mg/kg | 1 mg/kg | 12 mg/kg | 5.6 mg/kg | 4.4 mg/kg | NC1CCN(c2nc3c(-c4ccc(F)cc4F)cc(C(=O)O)c(=O)n3cc2F)C1 (stereo not drawn) | 0.5 µg/mL (≈ 1.24 µM) | 10.3 mg/kg | MIC [32]: 0.78 µg/mL (≈ 1.93 µM) |
| 0.01 µg/mL (≈ 0.0269 µM) | 0.002 µg/mL (≈ 0.00538 µM) | 0.01 µg/mL (≈ 0.0269 µM) | – | 0.05 µg/mL (≈ 0.135 µM) | 0.39 µg/mL (≈ 1.05 µM) | 0.39 µg/mL (≈ 1.05 µM) | 0.02 µg/mL (≈ 0.0538 µM) | 0.005 µg/mL (≈ 0.0135 µM) | 3.1 µg/mL (≈ 8.35 µM) | 0.05 µg/mL (≈ 0.135 µM) | – | – | – | – | – | 1.2 mg/kg | Cc1c(N2CC[C@@]3(C[C@@H]3N)C2)c(F)cn2c(=O)c(C(=O)O)cc(C3CC3)c12 | – | – | ED50 [33]: 6.3 mg/kg; MIC [34]: 0.39 µg/mL (≈ 1.05 µM) |
| – | 0.02 µg/mL (≈ 0.0577 µM) | 0.1 µg/mL (≈ 0.289 µM) | – | 0.2 µg/mL (≈ 0.577 µM) | 1.56 µg/mL (≈ 4.5 µM) | 0.78 µg/mL (≈ 2.25 µM) | 0.02 µg/mL (≈ 0.0577 µM) | 0.02 µg/mL (≈ 0.0577 µM) | 25 µg/mL (≈ 72.2 µM) | 0.2 µg/mL (≈ 0.577 µM) | 0.78 µg/mL (≈ 2.25 µM) | – | – | 11.2 mg/kg | – | 6.1 mg/kg | Cc1c(N2CC[C@@H](O)C2)c(F)cn2c(=O)c(C(=O)O)cc(C3CC3)c12 | – | – | ED50 [35]: > 2 mg/kg; MIC [36]: 0.2 µg/mL (≈ 0.577 µM) |
